The values that follow come from patent US20240376363A1, “FLUORINE SUBSTITUTED CYCLOBUTENE COMPOUNDS, AND COMPOSITIONS, METHODS AND USES INCLUDING SAME” (HONEYWELL INTERNATIONAL INC., priority 2021, published 2024).

Data set [1] is described as follows: long term (28 day) toxicity exposure. It is filed as in vivo. To be noted: 28 day exposure.
Data set [2] in a line: miscibility with mineral oil. To be noted: for Miscibility: with mineral oil, concentration up to which miscible. The class given is physicochemical. The source says: In addition, the compounds of the present invention have good miscibility with lubricants, including lubricants used in vapour compression refrigeration systems. For example, the Compounds 1 and 3 are fully miscible with e mineral oil at concentrations up to about 66.7 weight percent as indicated in the following table.

The nature of another data set: flash point (ASTM D3828). The class given is physicochemical. As for the experimental part: Flash Point refers the lowest temperature at which vapors of the liquid will […] as determined in accordance with ASTM D3828.
Non-flammable in the context of a thermal management composition or fluid means compounds or compositions which are determined to be non-flammable. The flash point of a thermal management composition or fluid refers the lowest temperature at which vapors of the composition will keep burning after the ignition source is removed as determined in accordance with ASTM D3828.

Data set [3] in a line: short term (4 hour) toxicity exposure. To be noted: 4 hour exposure. The class given is in vivo. An excerpt: LC50 is a measure of the acute toxicity of a compound. The acute inhalation toxicity of a compound can be assessed using the method described in the OECD Guideline for Testing of Chemicals No. 403 “Acute Inhalation Toxicity” (2009), Method B.2. (Inhalation) of Commission Regulation (EC) No. 440/2008.

A short description of a further data set: heat of vaporization. It is filed as physicochemical.

As for `FC1=C(Cl)CC1(F)F` [Compound 1, 1-chloro-2,3,3-trifluorocyclo-1-ene], the “long term (28 day) toxicity exposure” value in data set [1] is “failed”. The Miscibility entry in data set [2] is recorded as “Miscible up to 66.7%”. Moreover, the “Flash Point” value in the data set “flash point (ASTM D3828)” was “No flash point”. In addition, in “normal boiling point”, the “Normal Boiling Point” value came to 52 °C. Take `FC1=CCC1(F)F` [Compound 2, 1,4,4-trifluorocyclobut-1-ene]: the “Miscibility with mineral oil” value in data set [2] (ratio compound to mineral oil) is reported as “Not miscible”. For the same compound, the “Flash Point” value in “flash point (ASTM D3828)” is given as “Flash point observed”. The “Normal Boiling Point” value in the data set “normal boiling point” was 32 °C.

Take `FC1(F)C(Cl)=C(Cl)C1(F)F` [Compound 3, 1,2-dichloro-3,3,4,4-tetrafluorocyclobut-1-ene]: the “short term (4 hour) toxicity exposure” value in data set [3] is on record as “failed”. In addition, the Miscibility entry in data set [2] is recorded as “Miscible up to 66.7%”. Besides, the “Flash Point” value in the data set “flash point (ASTM D3828)” is given as “No flash point”. Besides, the “Normal Boiling Point” value in the data set “normal boiling point” is 58 °C. For the compound `COC1=C(Cl)C(F)(F)C1(F)F` [Compound 4], in the data set “normal boiling point”, the “Normal Boiling Point” value worked out at 110 °C. On to `COC1=C(OC)C(F)(F)C1(F)F` [Compound 11, 3,3,4,4-tetrafluoro-1,2-dimethoxycyclobut-1-ene], for which the “Normal Boiling Point” value in the data set “normal boiling point” was found to be 127 °C. In the data set “heat of vaporization”, `FC(F)(F)OC1=C(OC(F)(F)F)C(F)(F)C1(F)F` [Compound 13] returned a Heat of Vaporization of 7.65 kcal/mol. For the same compound, in the data set “normal boiling point”, the “Normal Boiling Point” value amounted to 144 °C.

In turn, `FC1=C(OC(C(F)(F)F)C(F)(F)F)C(F)(F)C1(F)F` [Compound 14, 1,3,3,4,4-pentafluoro-2-((1,1,1,3,3,3-hexafluoropropan-2-yl)oxy)cyclobut-1-ene] came in with a Heat of Vaporization in the data set “heat of vaporization” of 7.41 kcal/mol.

`FC(F)(F)C(OC1=C(OC(C(F)(F)F)C(F)(F)F)C(F)(F)C1(F)F)C(F)(F)F` [Compound 15, 3,3,4,4-pentafluoro-1,2-bis((1,1,1,3,3,3-hexafluoropropan-2-yl)oxy) cyclobut-1-ene] gave a Heat of Vaporization in the data set “heat of vaporization” of 8.13 kcal/mol.

`FC1=C(Oc2ccccc2)C(F)(F)C1(F)F` [Compound 16, ((perfluorocyclobut-1-en-1-yl)oxy)benzene] gave a Heat of Vaporization in the data set “heat of vaporization” of 10 kcal/mol. Consider `FC1(F)C(Oc2ccccc2)=C(Oc2ccccc2)C1(F)F` [Compound 17, ((perfluorocyclobut-1-ene-1,2-diyl)bis(oxy))dibenzene], for which the Heat of Vaporization in the data set “heat of vaporization” turned out to be 17.9 kcal/mol. Same read-out and setting: the value for `FC(F)(F)COC1=C(Cl)C(F)(F)C1(F)F` [Compound 18, 1-chloro-3,3,4,4-tetrafluoro-2-(2,2,2-trifluoroethoxy) cyclobut-1-ene] was 9.08 kcal/mol.
